From patent EP0751957B1, “PEPTIDE FRAGMENTS OF MICROBIAL STRESS PROTEINS AND PHARMACEUTICAL COMPOSITION MADE THEREOF FOR THE TREATMENT AND PREVENTION OF INFLAMMATORY DISEASES” (priority 1994, dated 2004)

Columns and labels:
[1] = test system: primed lymph node cells (PLNC); assay: T cell proliferation assay, PLNC from peptide-immunised rats; assay type: cell-based, Lewis rats; settings: for CPM PLNC: in vitro peptide 20 µg/ml
Method: Immunisations with synthetic peptides and primed lymph node populations: Rats were immunised with 50 µg of synthetic peptide in PBS/DDA in each hind footpad (i.e. 50 µg/footpad, 100 µg/rat). Ten days later, draining popliteal lymph nodes were removed, disaggregated, washed three times and used as a source of primed lymph node cells (PLNC). In some experiments, PLNC were derived as pooled inguinal and popliteal lymph nodes from AA rats 35-42 days post Mt immunisation.
(§1) T cell proliferation assays: PLNC were cultured in triplicate in 200 µl flat bottom microtitre wells (Costar) at 2 x 10^5 cells per well with or without antigen. In initial experiments PLNC were tested for responsiveness to individual peptides at concentrations of 5 and 20 µg/ml, and Mt, hsp65 and PPD over a range of concentrations. Concanavalin A (2 µg/ml) was used as a positive control for T cell proliferation. Cultures were incubated for 96 h at 37°C in a humidified atmosphere of 5% CO2. Cultures were pulsed for the final 16 h with [^3H] TdR (Amersham, U.K., 1 uCi/well) and TdR uptake measured using a liquid scintillation β counter. Assays using T cell lines were performed as above using 2 x 10^4 line cells per well with irradiated (30 Gy) syngeneic accessory cells (either 3 x 10^5 splenocytes/well or 10^6 thymocytes/well). Results are expressed as mean counts per minute (cpm) of triplicate cultures. In experiments where responses to Ag were low, responses were considered significant if the stimulation index (S.I. = […]) was greater than two and Student's t tests gave p < 0.01.
To determine whether immunisation of rats with synthetic peptides was effective at priming for T cell reactivity to hsp65 epitopes, in vitro proliferative responses following immunisation with 100 µg of peptide each containing individual T cell epitopes were examined. PLNC isolated ten days after immunisation were tested for response to the immunising peptide, overlapping peptides and to hsp65 (Table II). PLNC responses were observed after immunisation with seven of the nine peptides. Responses were not seen after immunisation with peptides 386-400 and 511-525.
(§2) T cell responses by immunisation with hsp65 peptides. Rats were immunised with synthetic peptides containing individual hsp65 epitopes (100 µg peptide/DDA per rat). Ten days later PLNC were isolated and tested for responses to overlapping peptides (20 µg/ml). Peptide-specific T cell lines were generated by bulk in vitro stimulation of PLNC with immunising peptide. Lines were tested for responses to overlapping peptides (10 µg/ml). […] Results are expressed as mean cpm of triplicate cultures. All SEM were less than 20%.

[2] = test system: Peptide-specific T cell lines; assay: T cell proliferation assay, peptide-specific T cell lines from peptide-immunised rats; assay type: cell-based, Lewis rats; settings: for CPM T Cell Line: in vitro peptide 10 µg/ml
Method: as §1
T cell lines: T cell lines with specificity for mycobacterial hsp65 or peptides were generated by bulk stimulation of either hsp65-PLNC or Mt-PLNC. PLNC were cultured at 5 x 10^6/ml in culture medium supplemented with 2% normal rat serum (NRS) in the presence of 10 µg/ml Ag. After three days viable cells were harvested using a ficoll-isopaque gradient and cultured for a further four days in culture medium + 5% FCS and 5% TCGF (Con A-activated rat spleen supernatant). Seven days after initial stimulation lines were restimulated with irradiated spleen accessory cells and 10 µg/ml Ag in culture medium + NRS. Lines were maintained ir. this seven day restimulation cycle. Short term epitope-specific T cell lines were also generated from rats immunised with synthetic peptides. Peptide-PLNC were cultured as above in the presence of 10 µg/ml peptide.
Bulk stimulation generated T cell lines to eight of the nine peptides tested. These eight lines were tested for specificity after four in vitro restimulations (Table II). All responded to the immunising peptide and, to some extent, to hsp65.
as §2

[3] = biological target: RT1.B^1 MHC class II molecule (rat (Lewis)); assay: cell-based or functional assay
hsp65-PLNC = assay: T cell proliferation assay, hsp65-PLNC; assay type: cell-based, Lewis rats; settings: PLNC from hsp65-immunised rats; peptides 5 and 20 µg/ml
Method: Immunisations and primed lymph node populations: Rats were immunised with either Mt or hsp65. Mt was suspended at 5 mg/ml in IFA or DDA and 100 µl injected in each hind footpad (i.e. 500 µg/footpad, 1 mg/rat). Hsp65 (1 mg/ml in PBS) was mixed 1:1 with DDA and 100 µl injected (i.e. 50 µg/footpad, 100 µg/rat). Ten to 21 days later, draining popliteal lymph nodes were removed, disaggregated, washed three times and used as a source of primed lymph node cells (PLNC). In control experiments splenocytes and lymph nodes from unimmunised rats and PLNC from rats immunised with IFA or DDA/PBS alone were used.
as §1
Hsp65-PLNC were analysed for responsiveness to a panel of peptides covering the entire sequence of hsp65 (Fig. 3a). […] In terms of magnitude of response, three regions of the molecule (residues 176-190, 211-230 and 221-240) appeared to contain the "dominant" T cell epitopes, while regions 86-100. 251-270, 396-410 and 506-525 contained "subdominant" or minor epitopes.

[4] = test system: hsp65-specific T cell line; assay: T cell proliferation assay, hsp65-specific T cell line; assay type: cell-based, Lewis rats; settings: short term lines from ten day hsp65-PLNC, seven days after first restimulation
Method: as §1
T cell lines: T cell lines with specificity for mycobacterial hsp65 or peptides were generated by bulk stimulation of either hsp65-PLNC or Mt-PLNC. PLNC were cultured at 5 x 10^6/ml in culture medium supplemented with 2% normal rat serum (NRS) in the presence of 10 µg/ml Ag. […]

[5] = PLNC 10 days after immunisation with peptide 86-100 (100 µg/DDA), mean of triplicates
[6] = T cell line from 86-100-immunised PLNC
[7] = PLNC 10 days after immunisation with peptide 176-190 (100 µg/DDA)
[8] = T cell line from 176-190-immunised PLNC
[9] = PLNC 10 days after immunisation with peptide 211-225 (100 µg/DDA)
[10] = T cell line from 211-225-immunised PLNC
[11] = PLNC 10 days after immunisation with peptide 226-240 (100 µg/DDA)
[12] = T cell line from 226-240-immunised PLNC
[13] = PLNC 10 days after immunisation with peptide 256-270 (100 µg/DDA)
[14] = T cell line from 256-270-immunised PLNC
[15] = PLNC 10 days after immunisation with peptide 396-410 (100 µg/DDA)
[16] = T cell line from 396-410-immunised PLNC
[17] = PLNC 10 days after immunisation with peptide 446-460 (100 µg/DDA)
[18] = T cell line from 446-460-immunised PLNC
[19] = PLNC 10 days after immunisation with peptide 511-525 (100 µg/DDA)
[20] = T cell line from 511-525-immunised PLNC

## 81-95: synthetic 15mer, residues 81-95 of mycobacterial hsp65 (DDVAGDGTTTATVLA; UniProt P9WPE7 81-95, looked up, fragment)
[1]; [5]
  CPM PLNC: 15296 cpm
[2]
  response of T cell line generated following immunisation with the 86-100 peptide: responded
[2]; [6]
  CPM T Cell Line: 15785 cpm

## 91-105: synthetic 15mer, residues 91-105 of mycobacterial hsp65
[1]; [5]
  CPM PLNC: 1999 cpm
[2]
  response of T cell line generated following immunisation with the 86-100 peptide: responded
[2]; [6]
  CPM T Cell Line: 18444 cpm

## 171-185: synthetic 15mer, residues 171-185 of mycobacterial hsp65
[1]; [7]
  CPM PLNC: 3082 cpm
[2]; [8]
  CPM T Cell Line: 1640 cpm

## 181-195: synthetic 15mer, residues 181-195 of mycobacterial hsp65
[1]; [7]
  CPM PLNC: 1916 cpm
[2]; [8]
  CPM T Cell Line: 1653 cpm

## 206-220: synthetic 15mer, residues 206-220 of mycobacterial hsp65
[1]; [9]
  CPM PLNC: 645 cpm
[2]; [10]
  CPM T Cell Line: 988 cpm

## 216-230: synthetic 15mer, residues 216-230 of mycobacterial hsp65
[1]; [9]
  CPM PLNC: 11117 cpm
[2]; [10]
  CPM T Cell Line: 102341 cpm

## 221-235: synthetic 15mer, residues 221-235 of mycobacterial hsp65
[1]; [11]
  CPM PLNC: 7381 cpm
[2]; [12]
  CPM T Cell Line: 100306 cpm

## 231-245: synthetic 15mer, residues 231-245 of mycobacterial hsp65
[1]; [11]
  CPM PLNC: 1655 cpm
[2]; [12]
  CPM T Cell Line: 862 cpm

## 251-265: synthetic 15mer, residues 251-265 of mycobacterial hsp65
[1]; [13]
  CPM PLNC: 6391 cpm
[2]; [14]
  CPM T Cell Line: 66063 cpm
[2]; irradiated syngeneic spleen APC
  response of the line generated against M.256-270 (line P.m52): responded

## 261-275: synthetic 15mer, residues 261-275 of mycobacterial hsp65
[1]; [13]
  CPM PLNC: 2553 cpm
[2]; [14]
  CPM T Cell Line: 646 cpm

## 391-405: synthetic 15mer, residues 391-405 of mycobacterial hsp65
[1]; [15]
  CPM PLNC: 2280 cpm
[2]; [16]
  CPM T Cell Line: 39335 cpm

## 401-415: synthetic 15mer, residues 401-415 of mycobacterial hsp65 (AKAAVEEGIVAGGGV; UniProt P9WPE7 401-415, looked up, fragment)
[1]; [15]
  CPM PLNC: 3211 cpm
[2]; [16]
  CPM T Cell Line: 2011 cpm

## 441-455: synthetic 15mer, residues 441-455 of mycobacterial hsp65
[1]; [17]
  CPM PLNC: 4715 cpm
[2]; [18]
  CPM T Cell Line: 17805 cpm

## 451-465: synthetic 15mer, residues 451-465 of mycobacterial hsp65
[1]; [17]
  CPM PLNC: 2130 cpm
[2]; [18]
  CPM T Cell Line: 1283 cpm

## 506-520: synthetic 15mer, residues 506-520 of mycobacterial hsp65
[1]; [19]
  CPM PLNC: 2754 cpm
[2]; [20]
  CPM T Cell Line: 61293 cpm

## 516-530: synthetic 15mer, residues 516-530 of mycobacterial hsp65
[1]; [19]
  CPM PLNC: 2821 cpm
[2]; [20]
  CPM T Cell Line: 1231 cpm

## mycobacterial hsp65 peptide 86-100
[3]
  reduction of peptide (1 µg/ml) induced T cell line proliferation by anti-RT1.B mAb 0X6 (10 µg/ml): > 70%

## mycobacterial hsp65 peptide 176-190
[3]
  reduction of peptide (1 µg/ml) induced T cell line proliferation by anti-RT1.B mAb 0X6 (10 µg/ml): > 70%

## mycobacterial hsp65 peptide 211-225
[3]
  reduction of peptide (1 µg/ml) induced T cell line proliferation by anti-RT1.B mAb 0X6 (10 µg/ml): > 70%

## mycobacterial hsp65 peptide 226-240
[3]
  reduction of peptide (1 µg/ml) induced T cell line proliferation by anti-RT1.B mAb 0X6 (10 µg/ml): > 70%

## mycobacterial hsp65 peptide 256-270
[3]
  reduction of peptide (1 µg/ml) induced T cell line proliferation by anti-RT1.B mAb 0X6 (10 µg/ml): > 70%

## mycobacterial hsp65 peptide 396-410
[3]
  reduction of peptide (1 µg/ml) induced T cell line proliferation by anti-RT1.B mAb 0X6 (10 µg/ml): > 70%

## mycobacterial hsp65 peptide 446-460
[3]
  reduction of peptide (1 µg/ml) induced T cell line proliferation by anti-RT1.B mAb 0X6 (10 µg/ml): > 70%

## mycobacterial hsp65 peptide 511-525
[3]
  reduction of peptide (1 µg/ml) induced T cell line proliferation by anti-RT1.B mAb 0X6 (10 µg/ml): > 70%

## peptide 180-188: synthetic 9mer, minimal AA-associated epitope 180-188 of mycobacterial hsp65 (TFGLQLELT; UniProt P9WPE7 180-188, looked up, fragment) [reference compound]
[1]; [7]
  CPM PLNC: 7859 cpm
[2]; [8]
  CPM T Cell Line: 23275 cpm
hsp65-PLNC
  hsp65-PLNC proliferative response to peptide: induce responses, but at a lower level

## peptide 386-400: synthetic 15mer, residues 386-400 of mycobacterial hsp65
[4]
  hsp65-specific T cell line response to peptide: did stimulate
[1]; 100 µg peptide, PLNC isolated ten days after immunisation
  PLNC responses after immunisation with the peptide: not seen
hsp65-PLNC
  hsp65-PLNC proliferative response to peptide: failed to stimulate
